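Step 1: Grow cells in 96-well plates. Step 2: Expose to compound for 48 hours at 5 concentrations. Step 3: Interpolate endpoints linearly; if unreached, use highest concentration. TGI: concentration producing complete growth inhibition.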
Assays:
Experiment in all cases: growth of human tumour cells (NCI), 48 h
[1] = system: MOLT-4 leukemia
[2] = system: COLO 205 colon
[3] = system: IGROV1 ovarian
[4] = system: MDA-MB-435
[5] = system: BT-549 breast
[6] = system: HOP-62 NSCLC
[7] = system: UACC-257 melanoma
[8] = system: SW-620 colon
[9] = system: SR leukemia
[10] = system: NCI-H23 lung
[11] = system: DU-145 prostate
[12] = system: SF-539 CNS
[13] = system: LOX IMVI melanoma
[14] = system: RXF 393 renal
[15] = system: SF-295 CNS
[16] = system: MDA-N
[17] = system: HS 578T breast
[18] = system: SNB-75 CNS
[19] = system: HOP-92 NSCLC
[20] = system: MALME-3M melanoma
[21] = system: SK-MEL-5 melanoma
[22] = system: 786-0 renal
[23] = system: MDA-MB-231 breast
[24] = system: T-47D breast
[25] = system: OVCAR-5 ovarian
[26] = system: A498 renal
[27] = system: HT29 colon
[28] = system: CCRF-CEM leukemia
[29] = system: SN12C renal
[30] = system: OVCAR-3 ovarian
[31] = system: UACC-62 melanoma
[32] = system: NCI-H522 lung
[33] = system: TK-10 renal
[34] = system: HCC-2998 colon
[35] = system: CAKI-1 renal
[36] = system: K-562 leukemia
[37] = system: ACHN renal
[38] = system: OVCAR-8 ovarian
[39] = system: SNB-19 CNS
[40] = system: SK-MEL-2 melanoma
[41] = system: HCT-15 colon
[42] = system: PC-3 prostate
[43] = system: EKVX NSCLC
[44] = system: U251 CNS
[45] = system: SF-268 CNS
[46] = system: MCF7 breast
[47] = system: HCT-116 colon
[48] = system: A549 NSCLC
[49] = system: HL-60(TB) leukemia
[50] = system: M14 melanoma
[51] = system: KM12 colon
[52] = system: NCI/ADR-RES ovarian
[53] = system: UO-31 renal
[54] = system: SK-MEL-28 melanoma
[55] = system: RPMI-8226 leukemia
[56] = system: NCI-H226 lung
[57] = system: OVCAR-4 ovarian
[58] = system: NCI-H460 lung
[59] = system: SK-OV-3 ovarian

Question: Which TGI [1] does the source give for S=C(S)N1CCN(c2cccc(Cl)c2)CC1 here?
Answer: The TGI was greater than 100 µM.

Question: What about the TGI [2] of the same compound?
Answer: Its TGI is greater than 100 µM.

Question: And the TGI [3]?
Answer: The TGI was greater than 100 µM.

Question: What about the TGI [4] of the same compound?
Answer: Its TGI is greater than 100 µM.

Question: What about the TGI [5] of the same compound?
Answer: The TGI was greater than 100 µM.

Question: And the TGI [6]?
Answer: Its TGI is greater than 100 µM.

Question: What about the TGI [7] of the same compound?
Answer: Its TGI is greater than 100 µM.

Question: And the TGI [8]?
Answer: Its TGI is greater than 100 µM.

Question: What about the TGI [9] of the same compound?
Answer: Its TGI is greater than 100 µM.

Question: What about the TGI [10] of the same compound?
Answer: Its TGI is greater than 100 µM.

Question: What about the TGI [11] of the same compound?
Answer: Its TGI is greater than 100 µM.

Question: What about the TGI [12] of the same compound?
Answer: The TGI was greater than 100 µM.

Question: What about the TGI [13] of the same compound?
Answer: Its TGI is greater than 100 µM.

Question: And the TGI [14]?
Answer: The TGI was greater than 100 µM.

Question: And the TGI [15]?
Answer: The TGI was greater than 100 µM.

Question: What about the TGI [16] of the same compound?
Answer: Its TGI is greater than 100 µM.

Question: What about the TGI [17] of the same compound?
Answer: Its TGI is greater than 100 µM.

Question: What about the TGI [18] of the same compound?
Answer: The TGI was greater than 100 µM.

Question: And the TGI [19]?
Answer: The TGI was greater than 100 µM.

Question: And the TGI [20]?
Answer: The TGI was greater than 100 µM.

Question: What about the TGI [21] of the same compound?
Answer: The TGI was greater than 100 µM.

Question: And the TGI [22]?
Answer: Its TGI is greater than 100 µM.

Question: What about the TGI [23] of the same compound?
Answer: The TGI was greater than 100 µM.

Question: What about the TGI [24] of the same compound?
Answer: Its TGI is greater than 100 µM.

Question: What about the TGI [25] of the same compound?
Answer: The TGI was greater than 100 µM.

Question: What about the TGI [26] of the same compound?
Answer: Its TGI is greater than 100 µM.

Question: And the TGI [27]?
Answer: Its TGI is greater than 100 µM.

Question: What about the TGI [28] of the same compound?
Answer: The TGI was greater than 100 µM.

Question: What about the TGI [29] of the same compound?
Answer: The TGI was greater than 100 µM.

Question: And the TGI [30]?
Answer: Its TGI is greater than 100 µM.

Question: And the TGI [31]?
Answer: Its TGI is greater than 100 µM.

Question: What about the TGI [32] of the same compound?
Answer: Its TGI is greater than 100 µM.

Question: And the TGI [33]?
Answer: Its TGI is greater than 100 µM.

Question: And the TGI [34]?
Answer: Its TGI is greater than 100 µM.

Question: And the TGI [35]?
Answer: The TGI was greater than 100 µM.

Question: What about the TGI [36] of the same compound?
Answer: Its TGI is greater than 100 µM.

Question: What about the TGI [37] of the same compound?
Answer: The TGI was greater than 100 µM.

Question: And the TGI [38]?
Answer: Its TGI is greater than 100 µM.

Question: What about the TGI [39] of the same compound?
Answer: Its TGI is greater than 100 µM.

Question: What about the TGI [40] of the same compound?
Answer: The TGI was greater than 100 µM.

Question: What about the TGI [41] of the same compound?
Answer: Its TGI is greater than 100 µM.

Question: What about the TGI [42] of the same compound?
Answer: Its TGI is greater than 100 µM.

Question: And the TGI [43]?
Answer: Its TGI is greater than 100 µM.

Question: And the TGI [44]?
Answer: Its TGI is greater than 100 µM.

Question: What about the TGI [45] of the same compound?
Answer: The TGI was greater than 100 µM.

Question: What about the TGI [46] of the same compound?
Answer: Its TGI is greater than 100 µM.

Question: What about the TGI [47] of the same compound?
Answer: Its TGI is greater than 100 µM.

Question: And the TGI [48]?
Answer: The TGI was greater than 100 µM.

Question: And the TGI [49]?
Answer: Its TGI is greater than 100 µM.

Question: What about the TGI [50] of the same compound?
Answer: The TGI was greater than 100 µM.

Question: What about the TGI [51] of the same compound?
Answer: Its TGI is greater than 100 µM.

Question: And the TGI [52]?
Answer: Its TGI is greater than 100 µM.

Question: What about the TGI [53] of the same compound?
Answer: The TGI was greater than 100 µM.

Question: And the TGI [54]?
Answer: Its TGI is greater than 100 µM.

Question: What about the TGI [55] of the same compound?
Answer: The TGI was greater than 100 µM.

Question: O=S(=O)(Nc1ccccc1)c1ccc(-c2c3nc(c(-c4ccc(S(=O)(=O)Nc5ccccc5)cc4)c4ccc([nH]4)c(-c4ccc(S(=O)(=O)Nc5ccccc5)cc4)c4nc(c(-c5ccc(S(=O)(=O)Nc6ccccc6)cc5)c5ccc2[nH]5)C=C4)C=C3)cc1 was tested. Which TGI [1] did it give?
Answer: The TGI was greater than 31.6 µM.

Question: And the TGI [2]?
Answer: The TGI was greater than 31.6 µM.

Question: What about the TGI [3] of the same compound?
Answer: The TGI was greater than 100 µM.

Question: And the TGI [4]?
Answer: Its TGI is greater than 31.6 µM.

Question: And the TGI [5]?
Answer: Its TGI is greater than 31.6 µM.

Question: What about the TGI [7] of the same compound?
Answer: Its TGI is greater than 31.6 µM.

Question: What about the TGI [8] of the same compound?
Answer: The TGI was greater than 31.6 µM.

Question: What about the TGI [9] of the same compound?
Answer: The TGI was greater than 31.6 µM.

Question: What about the TGI [10] of the same compound?
Answer: Its TGI is greater than 31.6 µM.

Question: And the TGI [11]?
Answer: The TGI was greater than 31.6 µM.

Question: And the TGI [12]?
Answer: The TGI was greater than 31.6 µM.

Question: What about the TGI [14] of the same compound?
Answer: The TGI was greater than 31.6 µM.

Question: What about the TGI [15] of the same compound?
Answer: The TGI was greater than 31.6 µM.

Question: And the TGI [56]?
Answer: The TGI was greater than 100 µM.

Question: What about the TGI [16] of the same compound?
Answer: Its TGI is greater than 31.6 µM.

Question: And the TGI [17]?
Answer: Its TGI is greater than 31.6 µM.

Question: And the TGI [18]?
Answer: The TGI was greater than 31.6 µM.

Question: And the TGI [19]?
Answer: The TGI was greater than 31.6 µM.

Question: And the TGI [20]?
Answer: Its TGI is greater than 31.6 µM.

Question: And the TGI [21]?
Answer: The TGI was greater than 31.6 µM.

Question: What about the TGI [22] of the same compound?
Answer: The TGI was greater than 31.6 µM.

Question: And the TGI [23]?
Answer: The TGI was greater than 31.6 µM.

Question: And the TGI [24]?
Answer: Its TGI is greater than 31.6 µM.

Question: What about the TGI [25] of the same compound?
Answer: The TGI was greater than 31.6 µM.

Question: And the TGI [26]?
Answer: The TGI was greater than 31.6 µM.

Question: And the TGI [27]?
Answer: Its TGI is greater than 31.6 µM.

Question: What about the TGI [28] of the same compound?
Answer: Its TGI is greater than 31.6 µM.

Question: And the TGI [29]?
Answer: The TGI was greater than 31.6 µM.

Question: What about the TGI [31] of the same compound?
Answer: Its TGI is greater than 31.6 µM.

Question: What about the TGI [32] of the same compound?
Answer: The TGI was greater than 31.6 µM.

Question: And the TGI [33]?
Answer: Its TGI is greater than 31.6 µM.

Question: What about the TGI [57] of the same compound?
Answer: The TGI was 24.6 µM.

Question: What about the TGI [34] of the same compound?
Answer: Its TGI is greater than 31.6 µM.

Question: What about the TGI [35] of the same compound?
Answer: The TGI was greater than 31.6 µM.

Question: And the TGI [36]?
Answer: Its TGI is greater than 31.6 µM.

Question: And the TGI [58]?
Answer: The TGI was 16.2 µM.

Question: And the TGI [37]?
Answer: The TGI was 22.4 µM.

Question: What about the TGI [38] of the same compound?
Answer: Its TGI is greater than 31.6 µM.

Question: What about the TGI [39] of the same compound?
Answer: Its TGI is greater than 31.6 µM.

Question: What about the TGI [40] of the same compound?
Answer: The TGI was greater than 31.6 µM.

Question: And the TGI [59]?
Answer: The TGI was greater than 31.6 µM.

Question: And the TGI [41]?
Answer: The TGI was greater than 31.6 µM.

Question: And the TGI [42]?
Answer: Its TGI is greater than 31.6 µM.

Question: And the TGI [43]?
Answer: The TGI was greater than 31.6 µM.

Question: What about the TGI [44] of the same compound?
Answer: The TGI was greater than 31.6 µM.

Question: And the TGI [45]?
Answer: The TGI was greater than 31.6 µM.

Question: What about the TGI [46] of the same compound?
Answer: Its TGI is greater than 31.6 µM.

Question: And the TGI [47]?
Answer: The TGI was greater than 31.6 µM.

Question: And the TGI [48]?
Answer: The TGI was greater than 31.6 µM.

Question: What about the TGI [49] of the same compound?
Answer: The TGI was greater than 31.6 µM.

Question: What about the TGI [50] of the same compound?
Answer: Its TGI is 23.6 µM.

Question: What about the TGI [51] of the same compound?
Answer: Its TGI is greater than 31.6 µM.

Question: And the TGI [52]?
Answer: The TGI was greater than 31.6 µM.

Question: And the TGI [53]?
Answer: Its TGI is greater than 31.6 µM.

— PubChem BioAssay (NCI)
